Assay results reported in patent publication US7858349B2, “Anti-cancer compounds” (The Regents of the University of Colorado, priority 1999, dated 2010).
Like-named read-outs stand apart in the source and are kept apart here.

Experiments:
PC3 PC cells = assay: Inhibition of PC3 tumor growth in vivo in nude mice; set-up: species or system athymic nude mice; key to PC3 In vivo % inhib.: an IC50 value of “0” represents no detectable anti-cancer activity for a drug in a given cell line; “Stim.” indicates the observation of a stimulatory activity on the growth of the cancer cell line; settings: percent inhibition of tumor growth in nude mice; prostate cancer; i.p. 5 mg/kg/every second day or 10 mg/kg/every fourth day
Experimental: Compounds having high in vitro cytotoxic activity were tested against implanted tumors in vivo. Athymic nude mice were implanted subcutaneously with suspensions (2 million SHP-77 SCLC cells, 1 million A549 NSCLC cells or 1.5 million PC3 PC cells) in Matrigel suspension. On the eighth day after tumor implantation groups of 5 mice bearing implants were injected intraperitoneally with the compounds being tested at 5 mg/kg/every second day or at 10 mg/kg/every fourth day; control animals were injected with an equal volume of isotonic saline. Less soluble compounds were initially dissolved in dimethyl sulfoxide (DMSO) and diluted with medium. In those cases the control injections contained the same concentration of DMSO. Tumor size was measured with a caliper three times per week. Tumor volume was calculated by the formula: Volume(cc)=3.14×(length)×(width)^2/6 At autopsy tumors were removed and weighed. Tumor inhibition was calculated on both weight and measurement basis. In each Table, an IC50 value of “0” represents no detectable anti-cancer activity for a drug in a given cell line and “Stim.” indicates the observation of a stimulatory activity on the growth of the cancer cell line.

SCLC strain SHP-77 = assay: MTT assay for cell survival, SCLC SHP-77 in vitro; assay type: cell-based, human; settings: ED50 for killing of SCLC strain SHP-77 in vitro, 4 days, 0 = no detectable activity

Structure (SMILES)	PC3 In vivo % inhib. (PC3 PC cells)	IC50 (SCLC strain SHP-77; read-out: SCLC SHP-77 IC50)	IC50 (SCLC strain SHP-77; read-out: SHP-77 In vitro IC50)
CC1(C)CC(NC(=O)C(Cc2ccc(OCc3c(Cl)cccc3Cl)cc2)NC(=O)C=CC(=O)c2ccccc2)CC(C)(C)N1 (stereo not drawn) [Analog M-1576, Bzac-OC2Y-Atmp]	57%	6.2 µM	
COc1ccc2c(c1)c(CC(=O)N[C@@H](Cc1ccc(OCc3c(Cl)cccc3Cl)cc1)C(=O)N1CCN(C/C=C/c3ccccc3)CC1)c(C)n2C(=O)c1ccc(Cl)cc1 [Analog M-1566, Indo-OC2Y-tCip]	57%	> 60 µM	
CC1(C)CC(NC(=O)C(Cc2ccc(OCc3c(Cl)cccc3Cl)cc2)NC(=O)C#Cc2ccccc2)CC(C)(C)N1 (stereo not drawn) [Analog M-1398, Ppr-OC2Y-Atmp]	65%	8 µM	
Cc1ccc(CSC(C)(C)C(NC(=O)C(C)(c2ccccc2)c2ccccc2)C(=O)NC2CC(C)(C)NC(C)(C)C2)cc1 (stereo not drawn) [Analog M-1510, 22Dp-Pen(Mbzl)-Atmp]	Stim.	4.2 µM	
Cc1ncc(CO)c(CNC(=O)[C@H](Cc2ccc(OCc3c(Cl)cccc3Cl)cc2)NC(=O)/C=C/c2c(F)c(F)c(F)c(F)c2F)c1O [Analog M-1622, F5c-OC2Y-Pxa]	58%	22 µM	
O=C(C=Cc1c(F)c(F)c(F)c(F)c1F)NC(Cc1ccc(-c2ccccc2)cc1)C(=O)N1CCN(c2ccccn2)CC1 (stereo not drawn) [Analog M-1258, F5c-Bip-Pypz]	10%		48 µM
CC1(C)CC(NC(=O)C(Cc2ccc(OCc3c(Cl)cccc3Cl)cc2)NC(=O)c2ccc(C(F)(F)F)cc2)CC(C)(C)N1 (stereo not drawn) [Analog M-1484, Ptmb-OC2Y-Atmp]	Stim.	1.8 µM	
CC1(C)CC(NC(=O)C(Cc2ccc(OCc3c(Cl)cccc3Cl)cc2)NC(=O)c2c(F)c(F)c(F)c(F)c2F)CC(C)(C)N1 (stereo not drawn) [Analog M-1360, F5bz-OC2Y-Atmp]	Stim.	4.1 µM	
CC1(C)CC(NC(=O)C(Cc2ccc(OCc3c(Cl)cccc3Cl)cc2)NC(=O)C2CCc3ccccc3C2)CC(C)(C)N1 (stereo not drawn) [Analog M-1440, Th2n-OC2Y-Atmp]	15%	3.5 µM	
CC1(C)CC(NC(=O)C(Cc2ccc(OCc3c(Cl)cccc3Cl)cc2)NC(=S)Nc2c(F)c(F)c(F)c(F)c2F)CC(C)(C)N1 (stereo not drawn) [Analog M-1094, F5PT-OC2Y-Atmp]	52%		3.2 µM
Cc1ncc(CO)c(CN[C@@H](Cc2ccc(OCc3c(Cl)cccc3Cl)cc2)C(=O)NC2CC(C)(C)NC(C)(C)C2)c1O [Analog M-1610, B6-OC2Y-Atmp]	Stim.	> 60 µM	
CC1(C)CC(NC(=O)C(Cc2ccc(OCc3c(Cl)cccc3Cl)cc2)NC(=O)c2c(F)c(N)cc(F)c2F)CC(C)(C)N1 (stereo not drawn) [Analog M-1452, Atfb-OC2Y-Atmp]	Stim.	7.2 µM	
O=C(C=Cc1c(F)c(F)c(F)c(F)c1F)NC(Cc1ccc(OCc2c(Cl)cccc2Cl)cc1)C(=O)NC1CN2CCC1CC2 [Analog M-1544, F5c-OC2Y-(R)-Aqu]	28%	6 µM	
Cc1ccc(CSC(C)(C)C(NC(=O)COc2c(F)c(F)c(F)c(F)c2F)C(=O)NC2CC(C)(C)NC(C)(C)C2)cc1 (stereo not drawn) [Analog M-1486, F5po-Pen(Mbzl)-Atmp]	21%	4.2 µM	
CC1(C)CC(NC(=O)C(Cc2ccc(C#N)cc2)NC(=O)C=Cc2c(F)c(F)c(F)c(F)c2F)CC(C)(C)N1 (stereo not drawn) [Analog M-1110, F5c-PCNF-Atmp]	54%		0.9 µM
CC1(C)CC(NC(=O)C(Cc2ccc(OCc3c(Cl)cccc3Cl)cc2)NC(=O)C=Cc2cccs2)CC(C)(C)N1 (stereo not drawn) [Analog M-1418, Thia-OC2Y-Atmp]	9%	8.6 µM	
CC1(C)CC(NC(=O)C(Cc2ccc(OCc3c(Cl)cccc3Cl)cc2)NC(=O)c2ccc(S(N)(=O)=O)cc2)CC(C)(C)N1 (stereo not drawn) [Analog M-1458, Sab-OC2Y-Atmp]	Stim.	> 60 µM	
O=C(NC(Cc1ccc2ccccc2c1)C(=O)N1CCC(N2CCCCC2)CC1)C(c1ccc(Cl)cc1)c1ccc(Cl)cc1 (stereo not drawn) [Analog M-1246, Bcpa-Nal-Pipp]	Stim		3.6 µM
COc1ccc2c(c1)c(CC(=O)N[C@@H](Cc1ccc(OCc3c(Cl)cccc3Cl)cc1)C(=O)NCCCN1CCN(C)CC1)c(C)n2C(=O)c1ccc(Cl)cc1 [Analog M-1584, Indo-OC2Y-Amp]	32%	1.5 µM	
O=C([C@H](Cc1ccc(OCc2c(Cl)cccc2Cl)cc1)NCc1c(F)c(F)c(F)c(F)c1F)N1CCN(C/C=C/c2ccccc2)CC1 [Analog M-1634, F5b-OC2Y-tCip]	Stim.	> 60 µM	

Structure (SMILES)	PC3 In vivo % inhib. (PC3 PC cells)	IC50 (SCLC strain SHP-77; read-out: SCLC SHP-77 IC50)	IC50 (SCLC strain SHP-77; read-out: SHP-77 In vitro IC50)
CC1(C)CC(NC(=O)[C@H](Cc2ccc(OCc3c(Cl)cccc3Cl)cc2)NC(=O)CCP(=O)(O)O)CC(C)(C)N1 [Analog M-1616, 3Php-OC2Y-Atmp]	18%	> 60 µM	
CC1(C)CC(NC(=O)C(Cc2ccc(Br)cc2)NC(=O)C=Cc2c(F)c(F)c(F)c(F)c2F)CC(C)(C)N1 (stereo not drawn) [Analog M-1144, F5c-PBF-Atmp]	20%		7.2 µM
CC1(C)CC(NC(=O)C(Cc2ccc(OCc3c(Cl)cccc3Cl)cc2)NS(=O)(=O)c2ccc(OC(F)(F)F)cc2)CC(C)(C)N1 (stereo not drawn) [Analog M-1536, 4Tmbs-OC2Y-Atmp]	Stim.	3.2 µM	
CC(C=CC1=C(C)CCCC1(C)C)=CC=CC(C)=CC(=O)NC(Cc1ccc(OCc2c(Cl)cccc2Cl)cc1)C(=O)NC1CC(C)(C)NC(C)(C)C1 (stereo not drawn) [Analog M-1446, Ret-OC2Y-Atmp]	60%	6.7 µM	
CC1(C)CC(NC(=O)C(Cc2ccc(OCc3c(Cl)cccc3Cl)cc2)NC(=O)C2CSC(=O)N2)CC(C)(C)N1 (stereo not drawn) [Analog M-1630, Otac-OC2Y-Atmp]	71%	60 µM	
O=C(C=Cc1c(F)c(F)c(F)c(F)c1F)NC(Cc1ccc(F)cc1)C(=O)NC1CCN(Cc2ccccc2)CC1 (stereo not drawn) [Analog M-1156, F5c-PFF-Abzp]	56%		7.5 µM
CC1(C)CC(NC(=O)C(Cc2ccc(OCc3c(Cl)cccc3Cl)cc2)NC(=O)c2c(F)c(N)cc(F)c2F)CC(C)(C)N1 (stereo not drawn) [Analog M-1420, Atfb-OC2Y-Atmp]	Stim.	12 µM	
CC1(C)CC(NC(=O)C(Cc2c[nH]c3ccccc23)NC(=O)C=Cc2c(F)c(F)c(F)c(F)c2F)CC(C)(C)N1 (stereo not drawn) [Analog M-1114, F5c-Trp-Atmp]	28%		> 60 µM
O=C(/C=C/c1c(F)c(F)c(F)c(F)c1F)N[C@@H](Cc1ccc(OCc2c(Cl)cccc2Cl)cc1)C(=O)NCc1nc2ccccc2[nH]1 [Analog M-1624, F5c-OC2Y-Ambi]	68%	50 µM	
COc1ccc2c(c1)c(CC(=O)NC(C(=O)NC1CC(C)(C)NC(C)(C)C1)C(C)(C)SCc1ccc(C)cc1)c(C)n2C(=O)c1ccc(Cl)cc1 (stereo not drawn) [Analog M-1518, Indo-Pen(Mbzl)-Atmp]	Stim.	6 µM	
CC1(C)CC(NC(=O)C(Cc2ccc(OCc3c(Cl)cccc3Cl)cc2)NC(=O)COc2c(F)c(F)c(F)c(F)c2F)CC(C)(C)N1 (stereo not drawn) [Analog M-1358, F5po-OC2Y-Atmp]	30%	4.1 µM	
Cc1ccc(CSC(C)(C)C(NC(=O)CCCc2c[nH]c3ccccc23)C(=O)NC2CC(C)(C)NC(C)(C)C2)cc1 (stereo not drawn) [Analog M-1474, 3Ibu-Pen(Mbzl)-Atmp]	Stim.	7.8 µM	
Cc1onc(-c2ccccc2Cl)c1C(=O)N[C@@H](Cc1ccc(OCc2c(Cl)cccc2Cl)cc1)C(=O)NC1CC(C)(C)NC(C)(C)C1 [Analog M-1568, Cmioc-OC2Y-Atmp]	Stim.	3.6 µM	
CC1(C)CC(NC(=O)[C@H](Cc2ccc(OCc3c(Cl)cccc3Cl)cc2)NCC=C(c2ccccc2)c2ccccc2)CC(C)(C)N1 [Analog M-1600, Pcnl-OC2Y-Atmp]	44%	4.1 µM	
CC1(C)CC(NC(=O)[C@H](Cc2ccc(OCc3c(Cl)cccc3Cl)cc2)NC(=O)c2ccc(N)cc2O)CC(C)(C)N1 [Analog M-1592, Pas-OC2Y-Atmp]	Stim.	7.2 µM	
CC1(C)CC(NC(=O)C(Cc2ccc([N+](=O)[O-])cc2)NC(=O)C=Cc2c(F)c(F)c(F)c(F)c2F)CC(C)(C)N1 (stereo not drawn) [Analog M-1112, F5c-PNF-Atmp]	24%		30 µM
CC1CN(C(=O)C(Cc2ccc(OCc3c(Cl)cccc3Cl)cc2)NC(=O)C=Cc2c(F)c(F)c(F)c(F)c2F)CC(C)N1Cc1ccccc1 (stereo not drawn) [Analog M-1556, F5c-OC2Y-cDmbp]	59%	18 µM	
Cc1ccc(CSC(C)(C)C(NC(=O)C=Cc2c(F)c(F)c(F)c(F)c2F)C(=O)NC2CC(C)(C)NC(C)(C)C2)cc1 (stereo not drawn) [Analog M-1430, F5c-Pen(Mbzl)-Atmp]	50%	6.1 µM	
O=C(C=Cc1c(F)c(F)c(F)c(F)c1F)NC(Cc1ccc(OCc2c(Cl)cccc2Cl)cc1)C(=O)N1CCN(c2ncccn2)CC1 (stereo not drawn) [Analog M-1554, F5c-OC2Y-Pmpz]	Stim.	6.8 µM	
